{"source": "ChEMBL document CHEMBL4507310", "about": "“Data for DCP probe A-1211212” (2021)", "key": {"[1]": {"target": "MAO-A (amine oxidase [flavin-containing] A) (Rattus norvegicus, UniProt P21396)", "experiment": "MAO-A Eurofins-Cerep binding assay", "set-up": "incubation time 60 min, incubation temperature 37°C, ligand concentration 10 nM", "conditions": "rat cerebral cortex, probe [3H]Ro 41-1049 (10 nM), compound concentration 10 uM, read-out: % Inhibition of Control Specific Binding (Mean n=2)"}, "[2]": {"test_system": "Mast/stem cell growth factor receptor Kit (Homo sapiens), P10721 [L576P]", "sequence (P10721 whole entry L576P)": "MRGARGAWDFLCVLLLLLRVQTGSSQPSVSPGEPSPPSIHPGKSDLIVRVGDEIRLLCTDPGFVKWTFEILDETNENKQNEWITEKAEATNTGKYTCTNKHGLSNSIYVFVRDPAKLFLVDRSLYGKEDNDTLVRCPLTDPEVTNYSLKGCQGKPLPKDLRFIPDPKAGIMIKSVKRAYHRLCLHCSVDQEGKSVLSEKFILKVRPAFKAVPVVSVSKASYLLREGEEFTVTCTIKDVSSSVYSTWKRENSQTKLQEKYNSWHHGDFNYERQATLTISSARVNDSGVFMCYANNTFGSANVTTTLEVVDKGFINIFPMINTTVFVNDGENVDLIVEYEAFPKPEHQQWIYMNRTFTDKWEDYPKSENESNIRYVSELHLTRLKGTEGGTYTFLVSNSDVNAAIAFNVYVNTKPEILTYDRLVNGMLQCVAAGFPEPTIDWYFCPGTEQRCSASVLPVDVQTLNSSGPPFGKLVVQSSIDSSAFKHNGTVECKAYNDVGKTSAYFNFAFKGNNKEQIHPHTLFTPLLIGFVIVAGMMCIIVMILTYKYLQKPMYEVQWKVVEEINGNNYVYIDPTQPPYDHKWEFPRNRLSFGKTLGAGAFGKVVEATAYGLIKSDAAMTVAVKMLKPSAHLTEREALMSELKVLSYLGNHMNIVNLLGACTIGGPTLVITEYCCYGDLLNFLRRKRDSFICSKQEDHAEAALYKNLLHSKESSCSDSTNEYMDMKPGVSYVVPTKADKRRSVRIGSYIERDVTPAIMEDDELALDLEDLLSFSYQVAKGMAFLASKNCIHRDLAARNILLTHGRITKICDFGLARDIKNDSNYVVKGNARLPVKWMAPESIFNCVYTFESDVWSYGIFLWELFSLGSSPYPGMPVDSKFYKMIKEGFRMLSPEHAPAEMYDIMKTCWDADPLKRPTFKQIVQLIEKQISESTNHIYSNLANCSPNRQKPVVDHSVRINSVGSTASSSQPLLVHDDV", "conditions": "Compound concentration 1000.0 nM"}, "[3]": {"target": "Serine/threonine-protein kinase 17A (Homo sapiens) (UniProt Q9UEE5)", "sequence (Q9UEE5 whole entry)": "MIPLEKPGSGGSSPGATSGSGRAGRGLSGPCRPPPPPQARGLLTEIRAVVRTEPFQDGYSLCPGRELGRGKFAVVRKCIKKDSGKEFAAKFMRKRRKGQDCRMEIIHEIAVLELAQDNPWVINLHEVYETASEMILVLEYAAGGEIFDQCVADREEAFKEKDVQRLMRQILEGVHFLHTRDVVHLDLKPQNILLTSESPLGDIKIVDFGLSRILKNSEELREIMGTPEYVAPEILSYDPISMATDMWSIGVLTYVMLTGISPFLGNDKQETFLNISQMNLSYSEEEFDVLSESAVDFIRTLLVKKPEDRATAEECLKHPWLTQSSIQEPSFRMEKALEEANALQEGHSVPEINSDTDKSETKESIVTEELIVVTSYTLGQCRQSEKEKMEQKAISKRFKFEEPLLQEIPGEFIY", "conditions": "Compound concentration 1000.0 nM"}, "[4]": {"target": "Tyrosine-protein kinase Lck (Homo sapiens) (UniProt P06239)", "conditions": "Compound concentration 1000.0 nM"}, "[5]": {"target": "Proto-oncogene tyrosine-protein kinase receptor Ret (Homo sapiens) (UniProt P07949)", "conditions": "Compound concentration 1000.0 nM"}, "[6]": {"target": "Mitogen-activated protein kinase kinase kinase 14 (Homo sapiens) (UniProt Q99558)", "sequence (Q99558 whole entry, looked up)": "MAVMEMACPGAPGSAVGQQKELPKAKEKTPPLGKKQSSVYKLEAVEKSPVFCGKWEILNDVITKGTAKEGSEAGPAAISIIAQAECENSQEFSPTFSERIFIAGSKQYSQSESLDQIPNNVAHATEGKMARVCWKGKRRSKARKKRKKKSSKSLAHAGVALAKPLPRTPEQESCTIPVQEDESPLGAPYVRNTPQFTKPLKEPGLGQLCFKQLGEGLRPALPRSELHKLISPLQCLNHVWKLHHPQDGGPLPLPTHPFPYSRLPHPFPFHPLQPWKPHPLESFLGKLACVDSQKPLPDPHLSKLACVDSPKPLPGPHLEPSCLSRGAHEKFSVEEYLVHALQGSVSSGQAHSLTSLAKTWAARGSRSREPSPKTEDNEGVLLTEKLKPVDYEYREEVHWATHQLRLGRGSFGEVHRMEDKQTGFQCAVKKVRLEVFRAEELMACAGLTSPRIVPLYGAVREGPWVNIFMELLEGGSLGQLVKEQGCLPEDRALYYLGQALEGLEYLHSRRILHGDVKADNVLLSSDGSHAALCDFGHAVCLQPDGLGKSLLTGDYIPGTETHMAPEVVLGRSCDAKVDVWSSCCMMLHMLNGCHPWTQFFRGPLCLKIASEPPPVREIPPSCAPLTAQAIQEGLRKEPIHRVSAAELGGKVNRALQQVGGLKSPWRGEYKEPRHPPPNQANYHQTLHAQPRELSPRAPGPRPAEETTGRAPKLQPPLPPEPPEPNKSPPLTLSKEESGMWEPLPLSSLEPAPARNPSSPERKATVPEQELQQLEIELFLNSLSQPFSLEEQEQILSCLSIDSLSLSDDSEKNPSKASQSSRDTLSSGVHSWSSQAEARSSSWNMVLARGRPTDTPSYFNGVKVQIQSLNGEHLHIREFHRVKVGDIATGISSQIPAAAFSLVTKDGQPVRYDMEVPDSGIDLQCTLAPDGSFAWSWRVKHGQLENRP", "conditions": "Compound concentration 1000.0 nM"}, "[7]": {"target": "Megakaryocyte-associated tyrosine-protein kinase (Homo sapiens) (UniProt P42679)", "sequence (P42679 whole entry)": "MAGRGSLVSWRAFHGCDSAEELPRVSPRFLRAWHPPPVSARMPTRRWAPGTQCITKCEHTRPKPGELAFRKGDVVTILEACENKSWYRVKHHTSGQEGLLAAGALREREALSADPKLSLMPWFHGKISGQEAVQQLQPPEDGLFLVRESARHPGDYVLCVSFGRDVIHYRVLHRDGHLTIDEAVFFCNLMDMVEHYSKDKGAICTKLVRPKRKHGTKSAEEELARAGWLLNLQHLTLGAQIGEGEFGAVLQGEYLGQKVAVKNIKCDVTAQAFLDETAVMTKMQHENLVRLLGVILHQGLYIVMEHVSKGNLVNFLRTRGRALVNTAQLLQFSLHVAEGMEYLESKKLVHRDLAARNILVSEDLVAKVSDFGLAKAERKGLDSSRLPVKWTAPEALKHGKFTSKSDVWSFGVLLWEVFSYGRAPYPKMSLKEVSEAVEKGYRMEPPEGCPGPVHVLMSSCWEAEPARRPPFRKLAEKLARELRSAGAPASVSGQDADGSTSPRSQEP", "conditions": "Compound concentration 1000.0 nM"}, "[8]": {"target": "Dual specificity mitogen-activated protein kinase kinase 2 (Homo sapiens) (UniProt P36507)", "conditions": "Compound concentration 1000.0 nM"}, "[9]": {"test_system": "Phosphatidylinositol 4,5-bisphosphate 3-kinase catalytic subunit alpha isoform (Homo sapiens), P42336 [H1047L]", "conditions": "Compound concentration 1000.0 nM"}, "[10]": {"target": "T1, Alpha-2B adrenergic receptor (Homo sapiens) (UniProt P18089)", "T1 sequence (whole entry)": "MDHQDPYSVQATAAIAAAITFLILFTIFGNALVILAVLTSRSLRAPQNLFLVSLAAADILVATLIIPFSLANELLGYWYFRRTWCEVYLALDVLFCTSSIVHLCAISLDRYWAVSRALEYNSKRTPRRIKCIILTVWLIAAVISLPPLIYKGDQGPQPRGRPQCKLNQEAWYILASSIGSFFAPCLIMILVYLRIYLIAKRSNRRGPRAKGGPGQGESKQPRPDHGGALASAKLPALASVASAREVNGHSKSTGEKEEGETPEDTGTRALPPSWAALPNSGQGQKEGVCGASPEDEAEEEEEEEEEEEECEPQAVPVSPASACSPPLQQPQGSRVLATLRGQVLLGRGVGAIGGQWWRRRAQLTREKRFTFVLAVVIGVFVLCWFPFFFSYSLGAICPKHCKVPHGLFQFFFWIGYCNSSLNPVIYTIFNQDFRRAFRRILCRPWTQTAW", "conditions": "Compound concentration 10.0 uM"}, "[11]": {"test_system": "Tyrosine-protein kinase ABL1 (Homo sapiens), P00519 [F317L]", "conditions": "Compound concentration 1000.0 nM"}, "[12]": {"target": "Serine/threonine-protein kinase SIK3 (Homo sapiens) (UniProt Q9Y2K2)", "conditions": "Compound concentration 1000.0 nM"}, "[13]": {"target": "Serine/threonine-protein kinase DCLK2 (Homo sapiens) (UniProt Q8N568)", "conditions": "Compound concentration 1000.0 nM"}, "[14]": {"test_system": "Mast/stem cell growth factor receptor Kit (Homo sapiens), P10721 [D816H]", "sequence (P10721 whole entry D816H)": "as the sequence (P10721 whole entry L576P) above, with P576L, D816H counted along it", "conditions": "Compound concentration 1000.0 nM"}, "[15]": {"target": "Estrogen receptor (Homo sapiens) (UniProt P03372)", "experiment": "Estrogen ER alpha (h) Eurofins-Cerep binding assay", "set-up": "ligand concentration 0.5 nM", "conditions": "filed as agonist, Compound concentration 10.0 uM"}, "[16]": {"target": "Vascular endothelial growth factor receptor 3 (Homo sapiens) (UniProt P35916)", "conditions": "Compound concentration 1000.0 nM"}, "[17]": {"test_system": "Epidermal growth factor receptor (Homo sapiens), P00533 [UNDEFINED MUTATION]", "conditions": "Compound concentration 1000.0 nM"}, "[18]": {"test_system": "Receptor-type tyrosine-protein kinase FLT3 (Homo sapiens), P36888 [N841I]", "conditions": "Compound concentration 1000.0 nM"}, "[19]": {"target": "Calcium/calmodulin-dependent protein kinase type 1 (Homo sapiens) (UniProt Q14012)", "conditions": "Compound concentration 1000.0 nM"}, "[20]": {"target": "T2, Muscarinic acetylcholine receptor M1 (Homo sapiens) (UniProt P11229)", "T2 sequence (whole entry)": "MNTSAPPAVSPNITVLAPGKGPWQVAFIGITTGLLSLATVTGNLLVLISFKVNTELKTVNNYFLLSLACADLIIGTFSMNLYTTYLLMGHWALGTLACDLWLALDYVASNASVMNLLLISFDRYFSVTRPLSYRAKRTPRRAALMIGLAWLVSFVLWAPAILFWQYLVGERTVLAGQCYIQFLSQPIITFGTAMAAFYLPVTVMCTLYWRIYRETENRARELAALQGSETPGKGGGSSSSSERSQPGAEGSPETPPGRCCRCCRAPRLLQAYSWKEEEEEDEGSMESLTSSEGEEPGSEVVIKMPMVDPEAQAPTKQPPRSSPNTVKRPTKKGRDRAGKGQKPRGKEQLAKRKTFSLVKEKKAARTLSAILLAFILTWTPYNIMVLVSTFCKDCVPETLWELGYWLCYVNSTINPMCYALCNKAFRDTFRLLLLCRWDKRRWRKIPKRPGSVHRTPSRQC", "experiment": "M1 (h) Eurofins-Cerep binding assay", "set-up": "ligand concentration 2 nM", "conditions": "filed as antagonist, Compound concentration 10.0 uM"}, "[21]": {"test_system": "Mast/stem cell growth factor receptor Kit (Homo sapiens), P10721 [A829P]", "sequence (P10721 whole entry A829P)": "as the sequence (P10721 whole entry L576P) above, with P576L, A829P counted along it", "conditions": "Compound concentration 1000.0 nM"}, "[22]": {"target": "Mitogen-activated protein kinase 4 (Homo sapiens) (UniProt P31152)", "sequence (P31152 whole entry)": "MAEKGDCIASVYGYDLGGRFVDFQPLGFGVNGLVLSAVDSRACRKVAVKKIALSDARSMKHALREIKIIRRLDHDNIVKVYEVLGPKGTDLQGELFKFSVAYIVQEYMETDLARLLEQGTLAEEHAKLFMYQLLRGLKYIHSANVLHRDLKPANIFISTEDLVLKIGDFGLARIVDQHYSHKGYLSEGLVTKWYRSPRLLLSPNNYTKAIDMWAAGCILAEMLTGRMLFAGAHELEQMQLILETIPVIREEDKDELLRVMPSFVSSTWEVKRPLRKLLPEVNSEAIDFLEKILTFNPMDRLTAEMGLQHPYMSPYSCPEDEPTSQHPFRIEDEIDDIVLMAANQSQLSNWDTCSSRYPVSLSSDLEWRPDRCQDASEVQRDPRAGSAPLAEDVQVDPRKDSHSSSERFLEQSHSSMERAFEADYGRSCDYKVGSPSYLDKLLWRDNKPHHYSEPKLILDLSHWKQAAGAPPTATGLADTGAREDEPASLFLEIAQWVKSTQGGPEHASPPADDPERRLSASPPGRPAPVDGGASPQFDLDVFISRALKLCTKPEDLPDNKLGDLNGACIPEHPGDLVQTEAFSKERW", "conditions": "Compound concentration 1000.0 nM"}, "[23]": {"target": "Serine/threonine-protein kinase 16 (Homo sapiens) (UniProt O75716)", "conditions": "Compound concentration 1000.0 nM"}, "[24]": {"target": "Mitogen-activated protein kinase kinase kinase 13 (Homo sapiens) (UniProt O43283)", "conditions": "Compound concentration 1000.0 nM"}, "[25]": {"target": "MAP kinase-activated protein kinase 2 (Homo sapiens) (UniProt P49137)", "sequence (P49137 whole entry, looked up)": "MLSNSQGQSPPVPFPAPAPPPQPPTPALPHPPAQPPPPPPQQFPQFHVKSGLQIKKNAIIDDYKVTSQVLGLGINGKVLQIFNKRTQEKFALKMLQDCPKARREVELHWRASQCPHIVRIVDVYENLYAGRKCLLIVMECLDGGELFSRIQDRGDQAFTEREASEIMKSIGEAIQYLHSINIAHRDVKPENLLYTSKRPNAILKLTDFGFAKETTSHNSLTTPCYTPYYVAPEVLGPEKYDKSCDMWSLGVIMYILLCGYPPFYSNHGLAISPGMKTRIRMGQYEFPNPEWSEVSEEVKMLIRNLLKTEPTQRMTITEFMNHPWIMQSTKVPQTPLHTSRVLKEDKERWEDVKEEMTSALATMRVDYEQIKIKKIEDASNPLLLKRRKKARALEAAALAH", "conditions": "Compound concentration 1000.0 nM"}, "[26]": {"target": "Adenosine receptor A1 (Homo sapiens) (UniProt P30542)", "sequence (P30542 whole entry)": "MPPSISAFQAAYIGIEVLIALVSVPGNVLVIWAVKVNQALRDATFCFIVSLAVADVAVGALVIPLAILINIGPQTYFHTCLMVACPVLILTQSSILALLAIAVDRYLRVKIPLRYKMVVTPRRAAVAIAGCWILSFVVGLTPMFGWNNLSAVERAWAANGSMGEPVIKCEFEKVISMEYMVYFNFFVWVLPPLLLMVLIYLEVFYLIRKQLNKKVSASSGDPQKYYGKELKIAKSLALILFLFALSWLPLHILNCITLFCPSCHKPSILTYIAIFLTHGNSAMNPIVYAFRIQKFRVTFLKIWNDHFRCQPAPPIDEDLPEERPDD", "experiment": "A1 (h) Eurofins-Cerep binding assay", "set-up": "ligand concentration 1 nM", "conditions": "filed as antagonist, Compound concentration 10.0 uM"}, "[27]": {"test_system": "Tyrosine-protein kinase ABL1 (Homo sapiens), P00519 [H396P]", "conditions": "Compound concentration 1000.0 nM"}, "[28]": {"target": "RAF proto-oncogene serine/threonine-protein kinase (Homo sapiens) (UniProt P04049)", "conditions": "Compound concentration 1000.0 nM"}, "[29]": {"test_system": "Mast/stem cell growth factor receptor Kit (Homo sapiens), P10721 [V559D,V654A]", "sequence (P10721 whole entry V559D/V654A)": "as the sequence (P10721 whole entry L576P) above, with V559D, P576L, V654A counted along it", "conditions": "Compound concentration 1000.0 nM"}, "[30]": {"target": "Tyrosine-protein kinase ITK/TSK (Homo sapiens) (UniProt Q08881)", "conditions": "Compound concentration 1000.0 nM"}, "[31]": {"target": "Serine/threonine-protein kinase TBK1 (Homo sapiens) (UniProt Q9UHD2)", "sequence (Q9UHD2 whole entry)": "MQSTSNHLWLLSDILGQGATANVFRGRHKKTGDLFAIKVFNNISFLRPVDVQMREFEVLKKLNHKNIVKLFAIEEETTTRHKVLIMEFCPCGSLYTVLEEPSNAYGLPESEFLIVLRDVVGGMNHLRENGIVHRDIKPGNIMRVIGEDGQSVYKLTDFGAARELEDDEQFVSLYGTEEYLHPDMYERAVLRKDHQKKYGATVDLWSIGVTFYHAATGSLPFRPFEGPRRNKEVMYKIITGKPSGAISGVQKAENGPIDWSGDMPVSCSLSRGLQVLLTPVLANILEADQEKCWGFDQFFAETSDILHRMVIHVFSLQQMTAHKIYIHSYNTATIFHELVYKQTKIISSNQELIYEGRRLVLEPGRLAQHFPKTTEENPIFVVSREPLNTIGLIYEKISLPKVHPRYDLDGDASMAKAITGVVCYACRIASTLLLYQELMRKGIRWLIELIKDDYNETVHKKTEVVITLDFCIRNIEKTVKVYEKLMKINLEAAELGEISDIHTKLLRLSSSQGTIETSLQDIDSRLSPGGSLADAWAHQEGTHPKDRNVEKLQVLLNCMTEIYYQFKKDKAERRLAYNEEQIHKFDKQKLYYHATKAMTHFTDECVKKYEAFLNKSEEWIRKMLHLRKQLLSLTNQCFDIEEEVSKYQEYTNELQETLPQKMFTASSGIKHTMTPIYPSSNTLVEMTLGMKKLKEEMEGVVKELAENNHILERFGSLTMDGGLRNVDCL", "conditions": "Compound concentration 1000.0 nM"}}, "data": [{"smiles": "O=C(NS(=O)(=O)c1ccc(NCC2CCOCC2)c([N+](=O)[O-])c1)c1ccc(N2CCN(Cc3ccc(C(F)(F)F)cc3-c3ccc(Cl)cc3)CC2)cc1Oc1cnc2[nH]ccc2c1", "note": "[A-1210227]", "values": [{"measurement": "inhibition at 60 min, 10 µM", "setting": "[1]", "value": 8.7, "unit": "%"}, {"measurement": "residual activity", "setting": "[2]", "value": 100, "unit": "%"}, {"measurement": "residual activity", "setting": "[3]", "value": 100, "unit": "%"}, {"measurement": "residual activity", "setting": "[4]", "value": 100, "unit": "%"}, {"measurement": "residual activity", "setting": "[5]", "value": 96, "unit": "%"}, {"measurement": "residual activity", "setting": "[6]", "value": 65, "unit": "%"}, {"measurement": "residual activity", "setting": "[7]", "value": 100, "unit": "%"}, {"measurement": "residual activity", "setting": "[8]", "value": 100, "unit": "%"}, {"measurement": "residual activity", "setting": "[9]", "value": 85, "unit": "%"}, {"measurement": "inhibition", "setting": "[10]", "value": 15.6, "unit": "%"}, {"measurement": "residual activity", "setting": "[11]", "value": 91, "unit": "%"}, {"measurement": "residual activity", "setting": "[12]", "value": 76, "unit": "%"}, {"measurement": "residual activity", "setting": "[13]", "value": 100, "unit": "%"}, {"measurement": "residual activity", "setting": "[14]", "value": 76, "unit": "%"}, {"measurement": "% Inhibition of Control Specific Binding (Mean n=2)", "setting": "[15]", "value": -7.6, "unit": "%"}, {"measurement": "residual activity", "setting": "[16]", "value": 100, "unit": "%"}, {"measurement": "residual activity", "setting": "[17]", "value": 86, "unit": "%"}, {"measurement": "residual activity", "setting": "[18]", "value": 100, "unit": "%"}, {"measurement": "residual activity", "setting": "[19]", "value": 100, "unit": "%"}, {"measurement": "% Inhibition of Control Specific Binding (Mean n=2)", "setting": "[20]", "value": -0.2, "unit": "%"}, {"measurement": "residual activity", "setting": "[21]", "value": 99, "unit": "%"}, {"measurement": "residual activity", "setting": "[22]", "value": 97, "unit": "%"}, {"measurement": "residual activity", "setting": "[23]", "value": 91, "unit": "%"}, {"measurement": "residual activity", "setting": "[24]", "value": 91, "unit": "%"}, {"measurement": "residual activity", "setting": "[25]", "value": 81, "unit": "%"}, {"measurement": "% Inhibition of Control Specific Binding (Mean n=2)", "setting": "[26]", "value": 13.6, "unit": "%"}, {"measurement": "residual activity", "setting": "[27]", "value": 92, "unit": "%"}, {"measurement": "residual activity", "setting": "[28]", "value": 100, "unit": "%"}, {"measurement": "residual activity", "setting": "[29]", "value": 100, "unit": "%"}, {"measurement": "residual activity", "setting": "[30]", "value": 100, "unit": "%"}, {"measurement": "residual activity", "setting": "[31]", "value": 74, "unit": "%"}]}, {"smiles": "CO[C@H]1CC[C@H](CNc2ccc(S(=O)(=O)NC(=O)c3ccc(N4CCN(CC5=C(c6ccc(Cl)cc6)CC(C)(C)CC5)CC4)cc3Oc3cnc4[nH]ccc4c3)cc2[N+](=O)[O-])CC1", "note": "[A-1211212]", "values": [{"measurement": "inhibition at 60 min, 10 µM", "setting": "[1]", "value": -5.9, "unit": "%"}, {"measurement": "residual activity", "setting": "[2]", "value": 100, "unit": "%"}, {"measurement": "residual activity", "setting": "[3]", "value": 88, "unit": "%"}, {"measurement": "residual activity", "setting": "[4]", "value": 73, "unit": "%"}, {"measurement": "residual activity", "setting": "[5]", "value": 100, "unit": "%"}, {"measurement": "residual activity", "setting": "[6]", "value": 100, "unit": "%"}, {"measurement": "residual activity", "setting": "[7]", "value": 89, "unit": "%"}, {"measurement": "residual activity", "setting": "[8]", "value": 100, "unit": "%"}, {"measurement": "residual activity", "setting": "[9]", "value": 90, "unit": "%"}, {"measurement": "inhibition", "setting": "[10]", "value": 33, "unit": "%"}, {"measurement": "residual activity", "setting": "[11]", "value": 100, "unit": "%"}, {"measurement": "residual activity", "setting": "[12]", "value": 89, "unit": "%"}, {"measurement": "residual activity", "setting": "[13]", "value": 100, "unit": "%"}, {"measurement": "residual activity", "setting": "[14]", "value": 76, "unit": "%"}, {"measurement": "% Inhibition of Control Specific Binding", "setting": "[15]", "value": 1.9, "unit": "%"}, {"measurement": "residual activity", "setting": "[16]", "value": 89, "unit": "%"}, {"measurement": "residual activity", "setting": "[17]", "value": 58, "unit": "%"}, {"measurement": "residual activity", "setting": "[18]", "value": 100, "unit": "%"}, {"measurement": "residual activity", "setting": "[19]", "value": 88, "unit": "%"}, {"measurement": "% Inhibition of Control Specific Binding (Mean n=2)", "setting": "[20]", "value": -7.2, "unit": "%"}, {"measurement": "residual activity", "setting": "[21]", "value": 100, "unit": "%"}, {"measurement": "residual activity", "setting": "[22]", "value": 100, "unit": "%"}, {"measurement": "residual activity", "setting": "[23]", "value": 79, "unit": "%"}, {"measurement": "residual activity", "setting": "[24]", "value": 89, "unit": "%"}, {"measurement": "residual activity", "setting": "[25]", "value": 93, "unit": "%"}, {"measurement": "% Inhibition of Control Specific Binding (Mean n=2)", "setting": "[26]", "value": 9.1, "unit": "%"}, {"measurement": "residual activity", "setting": "[27]", "value": 94, "unit": "%"}, {"measurement": "residual activity", "setting": "[28]", "value": 94, "unit": "%"}, {"measurement": "residual activity", "setting": "[29]", "value": 93, "unit": "%"}, {"measurement": "residual activity", "setting": "[30]", "value": 87, "unit": "%"}, {"measurement": "residual activity", "setting": "[31]", "value": 60, "unit": "%"}]}]}
